# Assay results taken from patent publication US11045519B2, “Arginine-rich polypeptide compositions and methods of using same” (UNM Rainforest Innovations, priority 2017, dated 2021).
# Entries after “also recorded” stand apart in the source; their conditions may differ.
# What was measured:
# Type in all cases: cell-based
# authentic HPV16 virions = experiment: Authentic HPV16 virion infection of HaCaT cells, RT-qPCR of spliced E1^E4 mRNA; conditions: 0.5 μM, 100 vge/cell, three days post-infection
# Description: FIG. 10. PolyR inhibits activity of authentic HPV16 virions. HaCaT cells were infected with authentic HPV16 virions (100 vge/cell) in the presence or absence of 500 nM polyR. At three days post-infection, total RNA was extracted from cells using TRIzol reagent (Invitrogen, Thermo Fisher Scientific, Inc., Carlsbad, Calif.). Equal amount of the RNA of polyR-treated and untreated cells was subjected to reverse transcription. Each RT reaction was divided into three qPCR amplifications of 45 cycles targeting the spliced transcripts of cellular β-actin or HPV16 cDNAs. Primers E7.4A and E4B target an amplimer derived from spliced E1^E4 RNA, as previously described (Patterson et al., 2005. J Virol 79:6838-6847).
# To validate the effect of polyR was not simply related to pseudovirus infections, HaCaT cells were infected with authentic HPV16 virions carrying viral genomes (100 vge/cell) in the presence or absence of 0.5 μM polyR. At three days post-infection, the cells were harvested and total RNA was extracted using TRIzol reagent (Invitrogen, Thermo Fisher Scientific, Inc., Carlsbad, Calif.). Nucleic acid concentrations were determined by optical density measurements. […] Quantification of cDNA derived from the spliced viral E1^E4 mRNA via qPCR was analyzed in triplicate samples from multiple separate experimental infections.
# HPV16 PsVs [1] = experiment: Dissociation of cell-bound HPV16 PsVs from HaCaT cells (L1 immunoblot); conditions: 3 μM added to HPV-bound HaCaT cells, 1 h 4° C.
# Description: (A) HPV16 PsVs were bound to HaCaT cells (one hour at 4° C.), before the addition of […]. After a one-hour incubation at 4° C., unbound virus was washed out, cells were lysed and analyzed for the content of HPV L1 protein. (B) HaCaT cells were exposed to HPV 16 PsV at 4° C. in the absence of polyR, simultaneously with polyR (0 h), or one hour after polyR treatment (+1 h). After extensive washing with PBS, cells were lysed and analyzed for the content of HPV16 L1 protein.
# FIG. 19. […] HPV16 PsVs were bound to HaCaT cells (one hour in cold), before the addition of 5 μM PrS. After a one-hour incubation at 4° C., unbound virus was washed out, cells were lysed, and HPV L1 protein content was measured as described in FIG. 16.
# To determine whether polyR could cause HPV16 dissociation from cells, HPV16 PsVs were bound to HaCaT cells for one hour at 4° C. After washing away unbound virus, HPV-bound cells were incubated with 3 μM polyR for one hour at 4° C.; control cells were untreated. Cells were lysed and analyzed for HPV L1 protein content. […]
# The post-attachment inhibitory effects of PrS could be due the displacement of capsids from the cell surface. […] After a one-hour incubation at 4° C., unbound virus was washed out, cells were lysed, and the HPV L1 protein content was analyzed.
# HPV16 PsVs [2] = experiment: HPV16 PsV binding to CHO mutant cells (L1 immunoblot); conditions: 3 μM, 30 min pre-treatment
# Description: FIG. 7. HPV binding and infection of CHO mutant cells in the presence of polyR. CHO mutant pgsA-745 cells (GAG deficient) and CHO mutant pgsD-677 cells (HS deficient) were grown in Ham's F12 medium supplemented with 10% fetal bovine serum and 1% Glutamax (Invitrogen, Thermo Fisher Scientific, Inc., Carlsbad, Calif.). (A) Cells were incubated with 3 μM polyR in the medium for 30 minutes before adding HPV16 PsVs and incubating at 4° C. for one hour. After extensive washing with PBS, cells were lysed and analyzed for the content of L1, as described in FIG. 4A. (B) Semi-confluent CHO-pgsA were treated with 3 μM polyR for one hour prior to adding HPV16 PsVs. Infection was scored at 24 hours post infection as described in FIG. 1. (C) Semi-confluent CHO-pgsD cells were treated with 3 μM polyR for one hour prior to adding HPV16 PsVs. Infection was scored at 24 hours post infection as described in FIG. 1.
# To test the effects of polyR on cells that differentially express heparan sulfate versus heparan sulfonated proteoglycans, like glycosaminoglycans (GAGs), genetically mutant clones of Chinese hamster ovary (CHO) cell lines were used. […] First, the effect of polyR on HPV16 PsV binding to these mutant cells was measured.
# HPV16 PsVs [3] = experiment: Direct pre-incubation of HPV16 PsVs with peptide, dilution below IC50, then infection of HaCaT cells; conditions: 0.3 μM, 1 h 37° C., diluted 1500-fold, HaCaT cells 24 h
# Description: FIG. 3. […] HPV16 PsVs were incubated with 0.3 μM polyR for one hour at 37° C. The virus-polyR mixture was diluted with CM to reduce the polyR concentration below the IC50 value prior to incubation with HaCaT cells for 24 hours (HPV16-polyR). The control included untreated HPV16 PsVs (HPV16) added to HaCaT cells. Infection was measured after 24-hour incubation.
# FIG. 15. Direct interaction of PrS to HPV16 PsVs. HPV16 PsVs were incubated with 1 μM PrS or HA:PrS complex for one hour at 37° C. Virus-PrS/or HA:PrS mixture was diluted with CM in order to reduce the PrS concentration below the IC50 value, and incubated with HaCaT cells for 24 hours. The control included untreated HPV16 PsVs. Infection was measured after 24 hours incubation as described in FIG. 12.
# Typically, direct interaction of cationic inhibitors with the viral capsids of non-enveloped viruses (including HPV) is sufficient for antiviral activity. To determine whether polyR inhibited HPV16 infectivity by direct interaction with viral capsids, HPV16 PsVs were incubated with […] for one hour at 37° C. The virus-polyR mixture was diluted 1500-fold to reduce the polyR concentration below the IC50 value, then incubated with HaCaT cells. The control included cells exposed to HPV PsVs that were not treated with polyR. […]
substance,measurement,setting,value
poly-L-arginine [polyR],inhibition of HPV16 infection (RT-qPCR),authentic HPV16 virions,~90%
same,release of HPV16 from cell membrane,HPV16 PsVs [1],did not induce the release of HPV16 from the cell membrane
same,HPV16 PsV binding,HPV16 PsVs [2]; CHO pgsA-745 cells (GAG deficient),did not prevent HPV binding; also recorded: increased binding was observed
same,HPV16 PsV binding,HPV16 PsVs [2]; CHO pgsD-677 cells (HS deficient),did not prevent HPV binding
same,effect of pre-incubation of HPV16 PsVs on infection,HPV16 PsVs [3],did not inhibit infection to a statistically significant degree
